In patent US20220056037A1 (SPV THERAPEUTICS INC., priority 2018, published 2022):

Key:
Assay in all cases: 2D cell proliferation assay (CellTiter-Blue)
Format in all cases: cell-based
CEXF HeLa = details: Homo sapiens, 72 h; cell line CEXF HeLa; three days of treatment; read-out: IC (abs. IC50)
Experimental: (§1) Viability of the cells was analyzed by using the CellTiter-Blue® Cell Viability Assay (Promega), and was performed according to manufacturer's instructions. Briefly, cells were harvested from exponential phase cultures (Chapter 6.6), counted and plated in 96-well flat-bottom microtiter plates at a cell density of 4,000-60,000 cells/well in a volume of 140 μl per well. After a 24 hours recovery period, 10 μL cell culture medium (six control wells/plate) or culture medium with test compound were added (Chapter 6.2). The compounds were applied at five concentrations in full-log increments up to 100 μM in duplicate. Cultures were incubated at 37° C. and 5% CO2 in a humidified atmosphere for another three days. After three days of treatment, 20 μl/well CellTiter-Blue® reagent was added. Following incubation with CellTiter-Blue® reagent for up to four hours, fluorescence (FU) was measured by using the Enspire Multimode Plate Reader (excitation λ=570 nm, emission λ=600 nm). For calculations, the mean values of duplicate/sextuplicate (untreated control) data were used.
(§2) Drug effects were expressed in terms of the percentage of the fluorescence signal, obtained by comparison of the mean signal in the treated wells with the mean signal of the untreated controls (expressed by the test-versus-control value, T/C-value [%]):
(§3) IC values are reported as relative IC50 values and absolute IC50 and IC70 values. […] The absolute IC70 value gives the concentration of the test compound that achieves T/C=30%. The relative IC50 value is the concentration of test compound that gives a response half way between the top and bottom plateau of the sigmoidal concentration-response curve (inflection point of the curve). Calculation was done by 4parameter non-linear curve fit (Oncotest Data Warehouse Software).
(§4) If an IC50 or IC70 value could not be determined within the examined dose range (because a compound was either too active or lacked activity), the lowest or highest concentration studied was used for calculation of the geometric mean value.
(§5) The overall potency of a compound was determined by the geometric mean IC50/IC70 values of all individual IC50/IC70 values. In the heatmap representation of IC50 and IC70 values, the distribution of the IC50 or IC70 values obtained for a test compound in the individual cell lines is given in relation to the geometric mean […] or IC70 value, obtained over all PDX models tested. The individual IC values range from 1/32-fold geometric mean IC (corresponding to very potent compound activity or high tumor sensitivity) to 32-fold geometric mean IC (corresponding to lack of compound activity or tumor resistance). The heatmap presentation, therefore, represents an antiproliferative “fingerprint” profile of a test compound.

CXF COLO 205 = details: Homo sapiens, 72 h; cell line CXF COLO 205; three days of treatment; read-out: IC (abs. IC50)
Experimental: as §1, §2, §3, §4, §5

CXF HT-29 = details: Homo sapiens, 72 h; cell line CXF HT-29; three days of treatment; read-out: IC (abs. IC50)
Experimental: as §1, §2, §3, §4, §5

GXA MKN45 = details: Homo sapiens, MKN-45, 72 h; cell line GXA MKN45; three days of treatment; read-out: IC (abs. IC50)
Experimental: as §1, §2, §3, §4, §5

LXFE Calu-1 = details: Homo sapiens, 72 h; cell line LXFE Calu-1; three days of treatment; read-out: IC (abs. IC50)
Experimental: as §1, §2, §3, §4, §5

LXFL NCI-H1299 = details: Homo sapiens, 72 h; cell line LXFL NCI-H1299; three days of treatment; read-out: IC (abs. IC50)
Experimental: as §1, §2, §3, §4, §5

LYXFNH U-937 = details: Homo sapiens, 72 h; cell line LYXFNH U-937; three days of treatment; read-out: IC (abs. IC50)
Experimental: as §1, §2, §3, §4, §5

MAXFLB 147D (ER +) = details: 72 h; cell line MAXFLB 147D (ER +); three days of treatment; read-out: IC (abs. IC50)
Experimental: as §1, §2, §3, §4, §5

MAXFTN BT-549 = details: Homo sapiens, 72 h; cell line MAXFTN BT-549; three days of treatment; read-out: IC (abs. IC50)
Experimental: as §1, §2, §3, §4, §5

MAXFTN MDA-MB-453 = details: Homo sapiens, 72 h; cell line MAXFTN MDA-MB-453; three days of treatment; read-out: IC (abs. IC50)
Experimental: as §1, §2, §3, §4, §5

MEXF A2058 = details: Homo sapiens, 72 h; cell line MEXF A2058; three days of treatment; read-out: IC (abs. IC50)
Experimental: as §1, §2, §3, §4, §5

OVXF SK-OV-3 = details: Homo sapiens, 72 h; cell line OVXF SK-OV-3; three days of treatment; read-out: IC (abs. IC50)
Experimental: as §1, §2, §3, §4, §5

PAXF BxPC-3 = details: Homo sapiens, 72 h; cell line PAXF BxPC-3; three days of treatment; read-out: IC (abs. IC50)
Experimental: as §1, §2, §3, §4, §5

PRXF VCap = details: Homo sapiens, 72 h; cell line PRXF VCap; three days of treatment; read-out: IC (abs. IC50)
Experimental: as §1, §2, §3, §4, §5

SMILES: CN1CCN(c2ccc(Nc3ncc4cc(C(=O)N(C)C)n(C56CC(C5)C6)c4n3)cc2)CC1 [SPV113]
- IC50 (CEXF HeLa): 329 nM
- IC50 (CXF COLO 205): 148 nM
- IC50 (CXF HT-29): 437 nM
- IC50 (GXA MKN45): 1080 nM
- IC50 (LXFE Calu-1): 1560 nM
- IC50 (LXFL NCI-H1299): 1630 nM
- IC50 (LYXFNH U-937): ≤ 10 nM
- IC50 (MAXFLB 147D (ER +)): 3470 nM
- IC50 (MAXFTN BT-549): 713 nM
- IC50 (MAXFTN MDA-MB-453): 177 nM
- IC50 (MEXF A2058): 1510 nM
- IC50 (OVXF SK-OV-3): 3150 nM
- IC50 (PAXF BxPC-3): 193 nM
- IC50 (PRXF VCap): 15 nM
